We go through 17 compounds from PubChem BioAssay AID328 (DTP/NCI, 2004).

Values joined by “and” are separate entries in the source; they are usually repeats but may differ in a detail not shown here. Identical values can stand only once. Toxic doses and inconclusive results are not listed.

In the assay the test system is BDF1 mice, P388 leukemia ip, median survival T/C. Kind of assay: NCI In Vivo Anticancer Drug Screen. Data for tumor model P388 Leukemia (intraperitoneal) in B6D2F1 (BDF1) mice. The following applies: endpoint: median survival time, higher = longer survival. The gist of the method:
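Mice carrying the transplantable tumour receive compound or vehicle. Survival is followed in each arm, and the treated measure is divided by the vehicle measure.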

Where [1] appears, read: dose: 100.0 mg/kg/injection, schedule: Q01DX009 (ip), vehicle: saline with Tween-80.
The mark [2] stands for this setting: dose: 200.0 mg/kg/injection, schedule: Q01DX009 (ip), vehicle: saline with Tween-80.
The mark [3] stands for this setting: dose: 400.0 mg/kg/injection, schedule: Q01DX009 (ip), vehicle: saline with Tween-80.
Setting [4] is: dose: 100.0 mg/kg/injection, schedule: Q04DX003 (ip), vehicle: saline with Tween-80.
[5] abbreviates: dose: 200.0 mg/kg/injection, schedule: Q04DX003 (ip), vehicle: saline with Tween-80.

`CC1=C(C)C2(C)C1(C)C1(C)C(C)=C(C)C21C` (stereo not drawn): the T/C (dose: 50.0 mg/kg/injection, schedule: Q01DX009 (ip), vehicle: Klucel (hydroxypropylcellulose) (HPC)) is 100 % of control; the T/C (dose: 100.0 mg/kg/injection, schedule: Q01DX009 (ip), vehicle: Klucel (hydroxypropylcellulose) (HPC)) was 90 % of control; the T/C (dose: 200.0 mg/kg/injection, schedule: Q01DX009 (ip), vehicle: Klucel (hydroxypropylcellulose) (HPC)) is 105 % of control.
With `O=c1cc(O)cc(/C=C/c2ccc(O)cc2)o1`, the T/C was 96 % of control under setting [1]; 107 % of control under setting [2]; 90 % of control (dose: 265.0 mg/kg/injection, schedule: Q01DX009 (ip), vehicle: saline with Tween-80); 98 % of control under setting [3].
As for `CCCCCCCCCC(=O)OCC1OC(=O)C(C)N(C)C(=O)CN(C)C(=O)C2C(=O)CC(C)N2C(=O)C(C(C)C)NC(=O)C1NC(=O)c1c2nc3c(C(=O)NC4C(=O)NC(C(C)C)C(=O)N5C(C)CC(OC(=O)CCCCCCCCC)C5C(=O)N(C)CC(=O)N(C)C(C(C)C)C(=O)OC4C)ccc(C)c3oc-2c(C)c(=O)c1N` (stereo not drawn), the T/C reads like this: (dose: 0.1 mg/kg/injection, schedule: Q01DX009 (ip), vehicle: saline with Tween-80) 105 % of control; (dose: 0.2 mg/kg/injection, schedule: Q01DX009 (ip), vehicle: saline with Tween-80) 93 % of control; (dose: 0.3 mg/kg/injection, schedule: Q04DX003 (ip), vehicle: saline with Tween-80) 107 % of control; (dose: 0.4 mg/kg/injection, schedule: Q01DX009 (ip), vehicle: saline with Tween-80) 89 % of control; (dose: 0.6 mg/kg/injection, schedule: Q04DX003 (ip), vehicle: saline with Tween-80) 92 % of control; (dose: 0.8 mg/kg/injection, schedule: Q01DX001 (ip), vehicle: saline with Tween-80) 98 % of control. Besides, the T/C reads like this: (dose: 0.8 mg/kg/injection, schedule: Q01DX009 (ip), vehicle: saline with Tween-80) 96 % of control; (dose: 1.6 mg/kg/injection, schedule: Q01DX001 (ip), vehicle: saline with Tween-80) 107 % of control; (dose: 1.6 mg/kg/injection, schedule: Q01DX009 (ip), vehicle: saline with Tween-80) 117 % of control; (dose: 2.4 mg/kg/injection, schedule: Q04DX003 (ip), vehicle: saline with Tween-80) 96 % of control; (dose: 3.2 mg/kg/injection, schedule: Q01DX001 (ip), vehicle: saline with Tween-80) 100 % of control; (dose: 4.8 mg/kg/injection, schedule: Q04DX003 (ip), vehicle: saline with Tween-80) 92 % of control. Also, the T/C was 100 % of control (dose: 6.4 mg/kg/injection, schedule: Q01DX001 (ip), vehicle: saline with Tween-80) and 97 % of control (dose: 12.8 mg/kg/injection, schedule: Q01DX001 (ip), vehicle: saline with Tween-80).
With `CC(NC=O)C(=O)NC(CC(=O)O)C(=O)O` (stereo not drawn), the T/C runs as follows: (dose: 50.0 mg/kg/injection, schedule: Q01DX005 (ip), vehicle: saline) 95 % of control; (dose: 100.0 mg/kg/injection, schedule: Q01DX005 (ip), vehicle: saline) 93 % of control; (dose: 200.0 mg/kg/injection, schedule: Q01DX005 (ip), vehicle: saline) 89 % of control.
For `O=C(O)c1c(C(=O)O)c(C(=O)O)c(C(=O)O)c(C(=O)O)c1C(=O)O`, the T/C runs as follows: (dose: 20.0 mg/kg/injection, schedule: Q01DX009 (ip), vehicle: saline) 107 % of control; (dose: 40.0 mg/kg/injection, schedule: Q01DX009 (ip), vehicle: saline) 117 % of control; (dose: 80.0 mg/kg/injection, schedule: Q01DX009 (ip), vehicle: saline) 98 % of control.
Turning to `Cc1ccc(Nc2ccc(Nc3ccc(C)cc3)c3c2C(=O)c2ccccc2C3=O)cc1`, the T/C was 90 % of control (dose: 50.0 mg/kg/injection, schedule: Q01DX009 (ip), vehicle: saline with Tween-80); 86 % of control under setting [1]; 88 % of control under setting [4]; 90 % of control under setting [2]; 100 % of control under setting [5].
As to `O=C(O)C(OP(=O)(O)O)C(=O)O`, the T/C by setting is: (dose: 25.0 mg/kg/injection, schedule: Q01DX009 (ip), vehicle: saline) 110 % of control; (dose: 50.0 mg/kg/injection, schedule: Q01DX009 (ip), vehicle: saline) 95 % of control; (dose: 100.0 mg/kg/injection, schedule: Q01DX009 (ip), vehicle: saline) 94 % of control; (dose: 200.0 mg/kg/injection, schedule: Q01DX009 (ip), vehicle: saline) 100 % of control.
Consider `CC(=O)OC1C2CCC3C(C)(O)C4CC(O)C(C)(C)C4(O)C(O)CC13CC2(C)O` (stereo not drawn), for which the T/C was 96 % of control (dose: 12.5 micrograms/kg/injection, schedule: Q01DX009 (ip), vehicle: Klucel (hydroxypropylcellulose) (HPC)); 91 % of control (dose: 25.0 micrograms/kg/injection, schedule: Q01DX009 (ip), vehicle: Klucel (hydroxypropylcellulose) (HPC)); 87 % of control (dose: 50.0 micrograms/kg/injection, schedule: Q01DX009 (ip), vehicle: Klucel (hydroxypropylcellulose) (HPC)).
Turning to `O=C(O)c1ccc(C2CC2)cc1`, the T/C under setting [1] is 95 % of control, the T/C under setting [2] is 90 % of control and the T/C under setting [3] was 90 % of control.
As for `Nc1nc2n[nH]nc2c(=O)[nH]1`, the T/C (dose: 25.0 mg/kg/injection, schedule: Q01DX010 (ip), vehicle: alkali diluted with saline) was 118 % of control; the T/C (dose: 100.0 mg/kg/injection, schedule: Q01DX010 (ip), vehicle: alkali diluted with saline) was 165 % of control; the T/C (dose: 200.0 mg/kg/injection, schedule: Q01DX010 (ip), vehicle: alkali diluted with saline) is 160 % of control and 163 % of control.
In the case of `COC(OC)C1=C(Cl)C(Cl)=C(Cl)/C1=N\Nc1ccccc1`, the T/C is 109 % of control (dose: 100.0 mg/kg/injection, schedule: Q01DX001 (ip), vehicle: saline with Tween-80) and 86 % of control (dose: 200.0 mg/kg/injection, schedule: Q01DX001 (ip), vehicle: saline with Tween-80).
As for `CCCC(=O)OCC1OC(n2cnc3c(=S)nc(N)[nH]c32)C(OC(=O)CCC)C1OC(=O)CCC` (stereo not drawn), the T/C (dose: 16.5 mg/kg/injection, schedule: Q04DX003 (ip), vehicle: saline with Tween-80) is 177 % of control; the T/C (dose: 25.0 mg/kg/injection, schedule: Q04DX003 (ip), vehicle: saline with Tween-80) is 154 % of control; the T/C (dose: 37.5 mg/kg/injection, schedule: Q04DX003 (ip), vehicle: saline with Tween-80) was 161 % of control.
Turning to `OC12CCC[N+]1(Cc1ccccc1)CCC2` (stereo not drawn), where the note is “dose: 25.0 mg/kg/injection, schedule: Q01DX010 (ip), vehicle: carboxymethylcellulose (CMC)”, the T/C is 90 % of control.
As for `O=C1NC(C2CCC3CN32)C(=O)NC1C1CCC2CN21` (stereo not drawn), the T/C runs as follows: (dose: 0.05 mg/kg/injection, schedule: Q01DX009 (ip), vehicle: saline) 91 % of control and 118 % of control; (dose: 0.1 mg/kg/injection, schedule: Q01DX009 (ip), vehicle: saline) 96 % of control; (dose: 0.2 mg/kg/injection, schedule: Q01DX009 (ip), vehicle: saline) 107 % of control; (dose: 0.8 mg/kg/injection, schedule: Q01DX009 (ip), vehicle: saline) 164 % of control and 173 % of control.
For `Cc1ccc(N=NNc2ccc(C)cc2)cc1`, the T/C (dose: 100.0 mg/kg/injection, schedule: Q01DX001 (ip), vehicle: Klucel (hydroxypropylcellulose) (HPC)) is 104 % of control; the T/C (dose: 200.0 mg/kg/injection, schedule: Q01DX001 (ip), vehicle: Klucel (hydroxypropylcellulose) (HPC)) is 104 % of control; the T/C (dose: 400.0 mg/kg/injection, schedule: Q01DX001 (ip), vehicle: Klucel (hydroxypropylcellulose) (HPC)) was 112 % of control.
Take `ON=C(CSCc1ccccc1)CSCc1ccccc1`: the T/C was 99 % of control (dose: 50.0 mg/kg/injection, schedule: Q04DX003 (ip), vehicle: saline with Tween-80); 103 % of control under setting [4]; 88 % of control under setting [5]; 95 % of control (dose: 400.0 mg/kg/injection, schedule: Q04DX003 (ip), vehicle: saline with Tween-80).
In the case of `CCOC(=N)CC(=N)OCC`, the T/C was 103 % of control (dose: 100.0 mg/kg/injection, schedule: Q01DX009 (ip), vehicle: water); 104 % of control (dose: 100.0 mg/kg/injection, schedule: Q04DX003 (ip), vehicle: water); 103 % of control (dose: 200.0 mg/kg/injection, schedule: Q01DX009 (ip), vehicle: water); 100 % of control (dose: 200.0 mg/kg/injection, schedule: Q04DX003 (ip), vehicle: water); 101 % of control (dose: 400.0 mg/kg/injection, schedule: Q01DX009 (ip), vehicle: water); 100 % of control (dose: 400.0 mg/kg/injection, schedule: Q04DX003 (ip), vehicle: water).
